Experimental data taken from patent US7229825B2, “Double-transfected cell line useful for the identification of transport inhibitors” (Deutches Krebsforschungszentrum Stiftung des Offentlichen …, priority 2001, dated 2007).
Where two headings read alike, the source gives them in different places. Blank lines part the entries; values can stand above or below the molecule they belong to.

How the values were obtained:
[1] = test system: human OATP8 and MRP2 (MDCK-MRP2/OATP8 cells)
[2] = test system: human OATP8 and MRP2 (MDCK-MRP2/OATP8 cells); test: Transcellular transport of organic anions across MDCK-MRP2/OATP8 cells on Transwell membrane inserts; details: substrate in basolateral compartment, 37° C., apical compartment measured; MDCK-MRP2/OATP8 compared with MDCK-OATP8, MDCK-Co (and MDCK-MRP2) cells
[3] = test system: human OATP8 and MRP2 (MDCK-MRP2/OATP8 cells); test: Inhibition of transcellular [3H]BSP transport in MDCK-MRP2/OATP8 cells; assay type: cell-based; details: 1 μM [3H]BSP, 30 min, 37° C.
human MRP2 = human MRP2 (Homo sapiens, UniProt Q92887); test: Inhibition of [3H]LTC4 transport into HEK-MRP2 membrane vesicles; assay type: biochemical; details: inhibitor at 50 μM
[4] = biological target: T1, human OATP8 (MDCK-OATP8 cells) (Homo sapiens, UniProt Q9NPD5); test: Inhibition of [3H]BSP accumulation and transport in MDCK-OATP8 cells; details: pre-incubation 20 min at room temperature, up to a concentration of 50 μM
T1 sequence (Q9NPD5 1-702): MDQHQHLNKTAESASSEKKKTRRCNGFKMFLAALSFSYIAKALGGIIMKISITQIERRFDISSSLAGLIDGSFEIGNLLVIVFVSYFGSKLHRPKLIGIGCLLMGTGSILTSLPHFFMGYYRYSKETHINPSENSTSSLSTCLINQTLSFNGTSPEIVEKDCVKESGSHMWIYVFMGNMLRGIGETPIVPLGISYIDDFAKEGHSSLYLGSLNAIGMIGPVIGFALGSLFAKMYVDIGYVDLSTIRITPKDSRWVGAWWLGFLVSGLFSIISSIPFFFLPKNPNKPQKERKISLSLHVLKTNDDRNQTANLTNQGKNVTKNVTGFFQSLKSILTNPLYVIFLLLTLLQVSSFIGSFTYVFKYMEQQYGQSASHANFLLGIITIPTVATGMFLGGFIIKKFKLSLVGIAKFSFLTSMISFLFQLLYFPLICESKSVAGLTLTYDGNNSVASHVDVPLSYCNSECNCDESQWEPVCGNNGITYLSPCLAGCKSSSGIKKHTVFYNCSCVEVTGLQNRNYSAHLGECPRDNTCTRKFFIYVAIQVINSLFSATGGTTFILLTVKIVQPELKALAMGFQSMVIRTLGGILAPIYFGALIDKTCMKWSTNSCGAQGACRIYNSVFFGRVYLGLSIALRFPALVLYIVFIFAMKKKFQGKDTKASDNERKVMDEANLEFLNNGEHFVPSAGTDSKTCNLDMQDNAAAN

MDCKII cell lines = test: Transcellular leakage of [14C]inulin carboxylic acid across MDCKII cell monolayers; assay type: cell-based, canine; details: 50 μM basolateral, 30 min, all four MDCKII cell lines
Protocol: The transcellular leakage was determined by incubating cells with 50 μM [^14C]inulin carboxylic acid in the basolateral compartments for 30 min and measuring the radioactivity in the apical compartments. For all four MDCKII cell lines used in this work the transcellular leakage was lower than 1%.

[5] = substrate: O=C1OC(c2ccc(O)c(S(=O)(=O)O)c2)(c2ccc(O)c(S(=O)(=O)O)c2)c2c(Br)c(Br)c(Br)c(Br)c21; test: ATP-dependent transport of [3H]BSP into inside-out membrane vesicles from HEK-MRP2 cells; assay type: biochemical, human; details: other: BSP concentrations between 1 and 10 μM; pH 7.4; 37.0 °C
Protocol: Vesicle Transport Studies. Transport of [^3H]BSP into membrane vesicles was measured by the rapid filtration method (Keppler et al. 1998). Briefly, membrane vesicles (30 μg protein) were incubated in the presence of 4 mM ATP, 10 mM creatine phosphate, 100 μg/ml creatine kinase, and [^3H]BSP in an incubation buffer (250 mM sucrose, 10 mM Tris/HCl, pH 7.4) in a final volume of 55 μl at 37° C. Aliquots (15 μl) were taken at the indicated time points, diluted in 1 ml ice-cold incubation buffer, and immediately filtered through presoaked nitrocellulose membrane (0.2 μm pore size, Schleicher & Schüll, Dassel, Germany). Filters were rinsed twice with 5 ml of incubation buffer, dissolved in liquid scintillation fluid, and counted for radioactivity. In control experiments, ATP was replaced by an equal concentration of 5′-AMP. ATP-dependent transport was calculated by subtracting values obtained in the presence of 5′-AMP from those obtained in the presence of ATP.

transcellular transport (basolateral to apical) [1]: much higher velocities
Molecule: CCCCC/C=C\C\C=C/C=C/C=C/[C@@H](SC[C@H](NC(=O)CC[C@H](N)C(=O)O)C(=O)NCC(=O)O)[C@@H](O)CCCC(=O)O [LTC4, leukotriene C4]

transcellular transport (basolateral to apical) [2]: much higher velocities
Molecule: C[C@]12CC[C@@H]3c4ccc(O)cc4CC[C@H]3[C@@H]1CC[C@@H]2O[C@@H]1O[C@H](C(=O)O)[C@@H](O)[C@H](O)[C@H]1O [E217bG, 17b-glucuronosyl estradiol]

[3H]LTC4 transport into HEK-MRP2 membrane vesicles (human MRP2): 50 % of control
Molecule: CO[C@H]1/C=C/O[C@@]2(C)Oc3c(C)c(O)c4c(O)c(c(/C=N/N5CCN(C)CC5)c(O)c4c3C2=O)NC(=O)/C(C)=C\C=C\[C@H](C)[C@H](O)[C@@H](C)[C@@H](O)[C@@H](C)[C@H](OC(C)=O)[C@@H]1C [rifampicin]
intracellular accumulation of [3H]BSP in MDCK-MRP2/OATP8 cells [3]: about 50 % of control
transcellular transport (basolateral to apical) [2]: significantly higher transcellular transport

Molecule: O=[N+]([O-])c1ccc(Cl)c([N+](=O)[O-])c1 [CDNB, 1-chloro-2,4-dinitrobenzene]
effect on intracellular accumulation of [3H]BSP in MDCK-MRP2/OATP8 cells ([3]; different concentrations): enhanced
effect on transcellular transport of [3H]BSP in MDCK-MRP2/OATP8 cells ([3]; different concentrations): markedly inhibited
effect on intracellular accumulation of [3H]BSP in MDCK-OATP8 cells [4]: not inhibited
effect on transcellular transport of [3H]BSP in MDCK-OATP8 cells [4]: not inhibited

transcellular transport (basolateral to apical) [1]: higher transport rate
Molecule: Cc1ccc(N(CC(=O)O)CC(=O)O)c(OCCOc2cc(-c3c4cc(Cl)c(=O)cc-4oc4cc(O)c(Cl)cc34)ccc2N(CC(=O)O)CC(=O)O)c1.N.N.N.N.N [Fluo-3, 1-[2-amino-5-(2,7-dichloro-6-hydroxy-3-oxo-3H-xanthen-9-yl)]-2-(2′-amino-5′-methyl-phenoxyl)-ethane-N,N,N′,N′-tetraacetic acid penta-ammonium salt]

Molecule: Inulin carboxylic acid [[^14C]Inulin carboxylic acid]
transcellular leakage (MDCKII cell lines): lower than 1%

[3H]LTC4 transport into HEK-MRP2 membrane vesicles (human MRP2): 38 % of control
Molecule: CO[C@H]1/C=C/O[C@@]2(C)Oc3c(C)c([O-])c4c(O)c(cc(O)c4c3C2=O)NC(=O)/C(C)=C\C=C\[C@H](C)[C@H](O)[C@@H](C)[C@@H](O)[C@@H](C)[C@H](OC(C)=O)[C@@H]1C.[Na+] [rifamycin SV]
intracellular accumulation of [3H]BSP in MDCK-MRP2/OATP8 cells [3]: about 50 % of control
effect on transcellular transport of [3H]BSP in MDCK-MRP2/OATP8 cells ([3]; different concentrations): inhibited more strongly

transcellular transport (basolateral to apical) [2]: no difference in transport rates
Molecule: C[C@H](CCC(=O)NCCS(=O)(=O)O)[C@H]1CC[C@H]2[C@@H]3[C@H](O)C[C@@H]4C[C@H](O)CC[C@]4(C)[C@H]3C[C@H](O)[C@]12C [[^3H]cholyl taurine, cholyl taurine]

B1: human MRP2 (Homo sapiens) (protein)
chain: MLEKFCNSTFWNSSFLDSPEADLPLCFEQTVLVWIPLGYLWLLAPWQLLHVYKSRTKRSSTTKLYLAKQVFVGFLLILAAIELALVLTEDSGQATVPAVRYTNPSLYLGTWLLVLLIQYSRQWCVQKNSWFLSLFWILSILCGTFQFQTLIRTLLQGDNSNLAYSCLFFISYGFQILILIFSAFSENNESSNNPSSIASFLSSITYSWYDSIILKGYKRPLTLEDVWEVDEEMKTKTLVSKFETHMKRELQKARRALQRRQEKSSQQNSGARLPGLNKNQSQSQDALVLEDVEKKKKKSGTKKDVPKSWLMKALFKTFYMVLLKSFLLKLVNDIFTFVSPQLLKLLISFASDRDTYLWIGYLCAILLFTAALIQSFCLQCYFQLCFKLGVKVRTAIMASVYKKALTLSNLARKEYTVGETVNLMSVDAQKLMDVTNFMHMLWSSVLQIVLSIFFLWRELGPSVLAGVGVMVLVIPINAILSTKSKTIQVKNMKNKDKRLKIMNEILSGIKILKYFAWEPSFRDQVQNLRKKELKNLLAFSQLQCVVIFVFQLTPVLVSVVTFSVYVLVDSNNILDAQKAFTSITLFNILRFPLSMLPMMISSMLQASVSTERLEKYLGGDDLDTSAIRHDCNFDKAMQFSEASFTWEHDSEATVRDVNLDIMAGQLVAVIGPVGSGKSSLISAMLGEMENVHGHITIKGTTAYVPQQSWIQNGTIKDNILFGTEFNEKRYQQVLEACALLPDLEMLPGGDLAEIGEKGINLSGGQKQRISLARATYQNLDIYLLDDPLSAVDAHVGKHIFNKVLGPNGLLKGKTRLLVTHSMHFLPQVDEIVVLGNGTIVEKGSYSALLAKKGEFAKNLKTFLRHTGPEEEATVHDGSEEEDDDYGLISSVEEIPEDAASITMRRENSFRRTLSRSSRSNGRHLKSLRNSLKTRNVNSLKEDEELVKGQKLIKKEFIETGKVKFSIYLEYLQAIGLFSIFFIILAFVMNSVAFIGSNLWLSAWTSDSKIFNSTDYPASQRDMRVGVYGALGLAQGIFVFIAHFWSAFGFVHASNILHKQLLNNILRAPMRFFDTTPTGRIVNRFAGDISTVDDTLPQSLRSWITCFLGIISTLVMICMATPVFTIIVIPLGIIYVSVQMFYVSTSRQLRRLDSVTRSPIYSHFSETVSGLPVIRAFEHQQRFLKHNEVRIDTNQKCVFSWITSNRWLAIRLELVGNLTVFFSALMMVIYRDTLSGDTVGFVLSNALNITQTLNWLVRMTSEIETNIVAVERITEYTKVENEAPWVTDKRPPPDWPSKGKIQFNNYQVRYRPELDLVLRGITCDIGSMEKIGVVGRTGAGKSSLTNCLFRILEAAGGQIIIDGVDIASIGLHDLREKLTIIPQDPILFSGSLRMNLDPFNNYSDEEIWKALELAHLKSFVASLQLGLSHEVTEAGGNLSIGQRQLLCLGRALLRKSKILVLDEATAAVDLETDNLIQTTIQNEFAHCTVITIAHRLHTIMDSDKVMVLDNGKIIECGSPEELLQIPGPFYFMAKEAGIENVNSTKF
notes: expressed in transfected cells
Km [5]: 12 µM
